Reference: patent US10945971B2, “Sphingosine kinase type 1 inhibitors and uses thereof” (Enzo Therapeutics, Inc., priority 2008, dated 2021)

Key:
[1] = tested on: blasts obtained from patients with AML; settings: U.S. Ser. No. 12/387,228; cited from earlier work
GBM6 glioblastoma cells = assay: Cell proliferation (WST-1), primary non-established GBM6 cells; format: cell-based, human
Protocol: (§1) U373-MG and LN229 human glioblastoma cells (ATTC, Manassas, Va.) were cultured in DMEM supplemented with 5% FCS. Primary human non-established glioblastoma GBM6 cells were kindly provided by Dr. C. David James and were passaged as tumors in nude mice and subcultured for 1 week following isolation from tumors in media containing 2% FCS to prevent growth of contaminating rodent fibroblasts and then cultured in 5% FCS as described (Yacoub et al., Mol Cancer Ther 7:314-329, 2008). LN229 cells were transfected with H2B-EGFP plasmid and stable colonies were isolated following selection with 1 mg/ml of G418. LN229-H2B-EGFP cells were passaged as tumors as described above.
Cells were plated at 10,000 cells/well in 48-well plates and allowed to attach for 24 h. Cell proliferation was measured at the indicated times with WST-1 and absorbance was measured in a plate reader at 450 nm with background subtraction at 630 nm. Cell death was detected by trypan blue exclusion assays in which the percent of blue dye incorporating cells were determined using a light microscope and a hemacytometer as described (Yacoub et al. Mol Cancer Ther 7:314-329, 2008). Apoptotic cell death was measured by staining cell nuclei with the Hoechst dye bisbenzimide and apoptotic cells were identified by condensed, fragmented nuclear regions as described previously (Sankala et al. Cancer Res 67:10466-10474, 2007). […]

GBM6 = assay: In vitro invasion, GBM6 cells; format: cell-based, human
Protocol: (§2) Boyden chamber invasion assays were carried out essentially as described (Shida et al. Cancer Res 68:6569-6577, 2008).

U373 cells [2] = assay: Boyden chamber chemotaxis, U373 cells; format: cell-based, human
Protocol: as §2

ERK1/2 = assay: Western blotting of ERK1/2 phosphorylation, LN229 cells; format: cell-based, human; settings: LN229, serum, LPA, EGF, short-term
Protocol: (§3) Cells were scraped in buffer containing 20 mM Tris-HCl, pH 7.5, 50 mM NaCl, 50 mM NaF, 30 mM Na4P2O7, 20 mM 2-glycerophosphate, 1 mM Na3VO4, 5 mM EDTA, 2 mM EGTA, 0.5% SDS and protease inhibitor cocktail (1:200 dilution) and probe-sonicated. Equal amounts of protein determined with bicinchoninic acid (Pierce, Rockford, Ill.), were resolved by SDS-PAGE and transferred to nitrocellulose membranes. Blots were blocked with 5% non-fat dry milk in Tris-buffered saline containing 0.1% […] (TBST) for 1 h at room temperature, and then incubated with primary antibodies (1:3,000 in 1% BSA) overnight, followed by the appropriate HRP-conjugated secondary antibodies (1:40,000 in 1% BSA). Immunocomplexes were visualized by enhanced chemiluminescence (Pierce).

LN229 cells = assay: Cell proliferation (WST-1), LN229 cells; format: cell-based, human
Protocol: as §1
(§4) Cells were plated at 10,000 cells/well in 48-well plates and allowed to attach for 24 h. Cell proliferation was measured at the indicated times with WST-1 and absorbance was measured in a plate reader at 450 nm with background subtraction at 630 nm. Cell death was detected by trypan blue exclusion assays in which the percent of blue dye incorporating cells were determined using a light microscope and a hemacytometer as described (Yacoub et al. Mol Cancer Ther 7:314-329, 2008). Apoptotic cell death was measured by staining cell nuclei with the Hoechst dye bisbenzimide and apoptotic cells were identified by condensed, fragmented nuclear regions as described previously (Sankala et al. Cancer Res 67:10466-10474, 2007). A minimum of 300 cells was scored.

Akt [3] = assay: Western blotting of Akt phosphorylation, LN229 cells; format: cell-based, human; settings: LN229, serum, LPA or EGF stimulated, 20 minutes treatment
Protocol: as §3

Akt [4] = assay: Western blotting of Akt phosphorylation, GBM6 cells; format: cell-based, human; settings: GBM6, shortly following treatment
Protocol: as §3

[5] = tested on: human leukemic cell lines; settings: U.S. Ser. No. 12/387,228; cited from earlier work
Akt [6] = biological target: Akt (Homo sapiens, UniProt P31749); settings: Paugh et al. Blood 2008; cited from earlier work
Akt (Homo sapiens, UniProt P31749), sequence (P31749 whole entry): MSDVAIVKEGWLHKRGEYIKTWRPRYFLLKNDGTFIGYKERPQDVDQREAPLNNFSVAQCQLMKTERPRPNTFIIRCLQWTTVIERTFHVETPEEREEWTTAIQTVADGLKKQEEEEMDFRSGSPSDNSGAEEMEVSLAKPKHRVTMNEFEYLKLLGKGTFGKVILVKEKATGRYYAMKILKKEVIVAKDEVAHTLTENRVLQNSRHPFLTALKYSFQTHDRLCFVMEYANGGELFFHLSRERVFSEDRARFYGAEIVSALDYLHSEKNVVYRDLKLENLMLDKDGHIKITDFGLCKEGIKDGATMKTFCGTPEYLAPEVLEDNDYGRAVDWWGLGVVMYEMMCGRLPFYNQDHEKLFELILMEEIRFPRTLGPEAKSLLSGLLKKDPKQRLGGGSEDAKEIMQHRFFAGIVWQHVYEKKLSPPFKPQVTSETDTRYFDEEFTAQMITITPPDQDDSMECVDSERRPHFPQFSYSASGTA

U118 cells = assay: Proliferation of U118 glioblastoma cells; format: cell-based, human
Protocol: as §4

p70S6K = assay: Western blotting of p70S6K phosphorylation, LN229 cells; format: cell-based, human
Protocol: as §3

[7] = tested on: intracranial LN229-H2B-EGFP tumors; assay: Intracranial LN229 xenograft tumors in nu/nu mice; format: in vivo
Protocol: Adult female NCI nu/nu mice were anesthetized and LN229-H2B-EGFP cells (2.5×10^4 in 1 μl PBS) were stereotactically implanted in the putamen region (1 mm anterior and 2.5 mm lateral to the Bregma at the depth of 3.5 mm at a rate of 0.1 μl/min). Mice were monitored for recovery until complete wakening. 20 days after implantation, mice were injected i.p. with SK1-I (20 mg/kg in PBS) every other day. Mice were observed daily following tumor implantation and were euthanized on reaching a moribund state.
Experiments were repeated at least three times with consistent results. For each experiment, data from triplicate samples were expressed as means±S.D. Statistics were performed by single factor ANOVA, and p<0.05 was considered significant. The Kaplan-Meier estimator was used to generate the survival curves and to estimate the median survival values. Differences between survival curves were compared using a log-rank test.

U373 cells [8] = assay: PMA-stimulated F-actin reorganization and lamellipodia formation (phalloidin staining, confocal); format: cell-based, human
Protocol: Cells were grown on 3-aminopropyl-triethoxysilane-treated 15 mm glass cover slips in 24 well plates. Following treatments, cells were washed with PBS, fixed with 3% paraformaldehyde for 10 min at room temperature, and blocked in TBST buffer containing 1% BSA. After washing, cells were incubated in the same buffer containing Alexa-conjugated phalloidin for 30 min, followed by 15 min incubation in 10 μg/ml of Hoechst 33342. For TUNEL assays, fixed cells were permeabilized with 0.5% TX-100 for 30 min, washed and incubated in TdT buffer supplemented with 250 μM CoCl2, 20 units TdT (NEB, Ipswich, Mass.) and 1 nM fluorescein-12-dUTP (Roche) for 1 h at 37° C. Coverslips were washed with TBST, rinsed in water, air dried and mounted on glass slides with Cytoseal 60 polymer (Richard-Allan Scientific, Kalamazoo, Mich.). Images were collected on an LSM 510 laser confocal microscope (Zeiss, Thornwood, N.Y.) with a 100× oil immersion objective.

[9] = tested on: S1P, sphingosine and ceramide levels; assay: Sphingolipid metabolite levels by LC-ESI-MS/MS after SK1-I; format: cell-based
Excerpt: Lipids were extracted and phosphorylated and unphosphorylated sphingoid bases, individual ceramide acyl chain species, as well as SK1-I and its metabolites were quantified by liquid chromatography, electrospray ionization-tandem mass spectrometry (LC-ESI-MS/MS) as described previously (Merrill et al. Methods 36:207-224, 2005).

SMILES: CCCCCc1ccc(/C=C/[C@H](O)[C@@H](CO)NC)cc1 [SK1-I, (2R,3S,4E)-N-methyl-5-(4′-pentylphenyl)-2-aminopent-4-ene-1,3-diol]
- apoptosis [1]: markedly induced apoptosis
- cell growth (GBM6 glioblastoma cells; GBM6, 10 μM, presence of serum): markedly reduced growth
- lowest concentration with significant growth inhibition (GBM6 glioblastoma cells; GBM6, absence of serum): 1 µM
- serum- and EGF-induced invasion (GBM6): suppressed
- chemotaxis toward serum or EGF (U373 cells [2]): reduced
- stimulated ERK1/2 phosphorylation at Thr202/Tyr204 (ERK1/2): did not significantly affect
- cell growth (LN229 cells; LN229, 10 μM, absence of serum): strongly inhibited growth
- cell numbers (LN229 cells; LN229, 10 μM, presence of serum, within 2-4 days): severe reductions in cell numbers
- concentration at which a significant growth inhibitory effect was observed (LN229 cells; LN229 cells): 3 µM
- phosphorylation of Akt at Thr308 and Ser473 (Akt [3]): markedly suppressed
- basal and serum- and EGF-stimulated phosphorylation of Akt (Akt [4]): reduced
- apoptosis [5]: markedly induced apoptosis
- Akt activity in an in vitro kinase assay (Akt [6]): did not inhibit Akt activity
- proliferation (U118 cells): suppress proliferation
- activation of p70S6K (Thr389) (p70S6K): reduced activation
- symptoms of tumor burden ([7]; 20 mg/kg i.p. every other day from day 20, when vehicle mice were moribund (day 43-49)): None of the SK1-I treated mice showed any symptoms
- tumors on T2W MRI ([7]; day 48): no tumors were evident
- tumor on gadolinium enhanced MRI ([7]; day 48, site of injection): small tumor
- Kaplan-Meier survival ([7]; i.p. administration, vs vehicle control): significant survival benefit
- invading GFP-labeled LN229 cells in intracranial tumor sections ([7]; vs vehicle treated animals): significantly fewer invading cells
- PMA-stimulated F-actin reorganization at the leading edge and formation of lamellipodia (U373 cells [8]): dramatically reduced
- ceramide levels, particularly C16-ceramide ([9]; after 24 h of treatment): increased markedly
- S1P levels ([9]; within 20 min after addition): significant reduction
- ceramide levels ([9]; within 1 h after addition): without major changes
- decrease in S1P levels ([9]; within 1 h after addition): 70%
- sphingosine levels ([9]; within 1 h after addition): increase
